# Results from patent US12428415B2, “Matriptase 2 inhibitors and uses thereof” (Disc Medicine, Inc., priority 2018, dated 2025).
# Target: T1, Human Recombinant Matriptase 2 (Homo sapiens, UniProt Q8IU80)
# T1 construct: purchased Enzo Life Sciences (an in-house preparation was also used) ALX-201-752-1
# T1 sequence (Q8IU80 1-811): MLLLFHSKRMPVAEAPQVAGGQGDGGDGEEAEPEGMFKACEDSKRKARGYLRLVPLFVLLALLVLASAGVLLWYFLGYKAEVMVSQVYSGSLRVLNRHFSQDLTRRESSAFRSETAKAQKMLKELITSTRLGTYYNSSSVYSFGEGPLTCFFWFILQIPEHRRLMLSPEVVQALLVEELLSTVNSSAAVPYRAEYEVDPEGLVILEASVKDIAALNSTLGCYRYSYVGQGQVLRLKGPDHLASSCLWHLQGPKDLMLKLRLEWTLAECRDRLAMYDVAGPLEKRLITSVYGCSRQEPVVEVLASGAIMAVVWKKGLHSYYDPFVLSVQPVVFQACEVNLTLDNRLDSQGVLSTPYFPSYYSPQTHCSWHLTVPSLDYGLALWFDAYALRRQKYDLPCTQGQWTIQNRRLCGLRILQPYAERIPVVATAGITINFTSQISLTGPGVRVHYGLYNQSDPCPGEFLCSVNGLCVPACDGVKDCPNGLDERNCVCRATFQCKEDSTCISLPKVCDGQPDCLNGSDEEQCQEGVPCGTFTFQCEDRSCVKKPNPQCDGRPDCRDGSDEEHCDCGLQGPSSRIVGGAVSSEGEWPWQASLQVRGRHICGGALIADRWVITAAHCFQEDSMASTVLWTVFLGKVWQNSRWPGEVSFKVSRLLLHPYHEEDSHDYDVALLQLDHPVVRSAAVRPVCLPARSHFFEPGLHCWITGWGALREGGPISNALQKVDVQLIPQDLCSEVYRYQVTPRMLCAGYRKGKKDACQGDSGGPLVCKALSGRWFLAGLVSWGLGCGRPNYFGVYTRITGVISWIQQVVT
# Test: Matriptase 2 fluorescence based inhibition assay, Method A (100 mM TRIS pH 9, 1 mg/mL BSA)
# Type: biochemical
# Settings: at 1 uM; Assay Used = A; read-out: Mar-2 % inhibition at 1 uM
# In short: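 Enzyme (7 nM commercial or 15 nM in-house) preincubated 30 min with compound in 100 mM TRIS pH 9, 1 mg/mL BSA, 1% DMSO at 25° C. Boc-Gln-Ala-Arg-AMC substrate at 100 μM; fluorescence (Ex 360/Em 480 nm) read 60 min later. Screened at 1 and 10 μM; IC50 from variable-slope sigmoidal fit.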
row,Compound,inhibition at 1 µM
1,N=C(N)c1ccc2c(Cl)c(C(=O)N[C@H]3CC[C@H](N)CC3)n(Cc3ccc(Oc4ccccc4)cc3)c2c1 [Compound I-251],25 to 50%
2,N=C(N)c1ccc2cc(C(=O)N3CCC(F)CC3)n(Cc3ccc(OC(F)(F)F)cc3)c2c1 [Compound I-289],0 to 25%
3,N=C(N)c1ccc2cc(C(=O)NC3Cc4ccccc4C3)n(Cc3ccc(C(N)=O)cc3)c2c1 [Compound I-201],0 to 25%
